Tests used:
Test in all cases: GRmax, 72 h; higher = less effect;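 also: breast cell lines in 384-well plates, nine doses across a 10^4 range, Dye Drop imaging of viable cells vs DMSO and time-zero plates, GR 0 means no net growth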
HCC1395 = test system: HCC1395
HCC1419 = test system: HCC1419
HCC70 = test system: HCC70
SKBR3 = test system: SKBR3
CAL851 = test system: CAL851
MDAMB175VII = test system: MDAMB175VII
PDXHCI002 = test system: PDXHCI002
BT474 = test system: BT474
HCC1806 = test system: HCC1806
ZR7530 = test system: ZR7530
SUM185PE = test system: SUM185PE
SUM159 = test system: SUM159

Row | SMILES | GRmax, 72 h (HCC1395) | GRmax, 72 h (HCC1419) | GRmax, 72 h (HCC70) | GRmax, 72 h (SKBR3) | GRmax, 72 h (CAL851) | GRmax, 72 h (MDAMB175VII) | GRmax, 72 h (PDXHCI002) | GRmax, 72 h (BT474) | GRmax, 72 h (HCC1806) | GRmax, 72 h (ZR7530) | GRmax, 72 h (SUM185PE) | GRmax, 72 h (SUM159) | GRmax, 72 h (HCC1395; main component drawn) | GRmax, 72 h (HCC1419; main component drawn) | GRmax, 72 h (HCC70; main component drawn) | GRmax, 72 h (SKBR3; main component drawn) | GRmax, 72 h (CAL851; main component drawn) | GRmax, 72 h (PDXHCI002; main component drawn) | GRmax, 72 h (HCC1806; main component drawn) | GRmax, 72 h (SUM159; main component drawn)
1 | C[C@@H]1COCCN1c1cc(C2([S@](C)(=N)=O)CC2)nc(-c2cc[nH]c3nccc2-3)n1 [AZD6738] (max 10 µM) | -0.284 GR | 0.367 GR | -0.532 GR | -0.0886 GR | 0.144 GR | 0.149 GR | 0.734 GR | 0.267 GR | -0.326 GR | 0.61 GR | 0.687 GR | 0.497 GR |  |  |  |  |  |  |  | 
2 | NC(=O)Nc1cc(-c2cccc(F)c2)sc1C(=O)N[C@H]1CCCNC1 [AZD7762] (max 10 µM) | -0.69 GR | -0.0826 GR | -0.7 GR | -0.451 GR | -0.322 GR | -0.811 GR | -0.582 GR | 0.0014 GR | -0.482 GR | 0.0949 GR | 0.115 GR | -0.278 GR |  |  |  |  |  |  |  | 
3 | Cc1nc(NC(=O)N2CCC[C@H]2C(N)=O)sc1-c1ccnc(C(C)(C)C(F)(F)F)c1 [Alpelisib/BYL719] (max 10 µM) | 0.637 GR | -0.002 GR | 0.0981 GR | -0.143 GR | 0.293 GR | -0.697 GR | 0.63 GR | -0.809 GR | 0.726 GR | -0.0068 GR | 0.15 GR | 0.602 GR |  |  |  |  |  |  |  | 
4 | CN(C)C/C=C/C(=O)Nc1ccc(O[C@@H]2CCC[C@@H](Nc3ncc(Cl)c(-c4c[nH]c5ccccc45)n3)C2)cc1 [BSJ-01-175] (max 10 µM) | -0.862 GR | -0.601 GR | -0.884 GR | -0.769 GR | -0.535 GR | -0.798 GR | -0.297 GR | -0.962 GR | -0.592 GR | -0.943 GR | -0.47 GR | -0.473 GR |  |  |  |  |  |  |  | 
5 | CC(=O)c1c(C)c2cnc(Nc3ccc(N4CCN(CCOCCOCCOCCNC(=O)COc5cccc6c5C(=O)N(C5CCC(=O)NC5=O)C6=O)CC4)cn3)nc2n(C2CCCC2)c1=O (configuration not stated) [BSJ-03-123] (max 10 µM) | -0.171 GR | 0.165 GR | -0.513 GR | -0.347 GR | -0.208 GR | 0.0607 GR | -0.0835 GR | -0.0209 GR | -0.0588 GR | -0.258 GR | 0.665 GR | -0.042 GR |  |  |  |  |  |  |  | 
6 | CC(C)Nc1cc(-c2c[nH]c(C(=O)N[C@H](CO)c3cccc(Cl)c3)c2)c(Cl)cn1 [BVD523] (max 10 µM) | 0.253 GR | 0.637 GR | 0.461 GR | 0.34 GR | 0.274 GR | -0.31 GR | 0.286 GR | 0.977 GR | 0.76 GR | 0.562 GR | 0.734 GR | 0.156 GR |  |  |  |  |  |  |  | 
7 | Cc1c(N)nc([C@H](CC(N)=O)NC[C@H](N)C(N)=O)nc1C(=O)N[C@H](C(=O)N[C@H](C)[C@@H](O)[C@H](C)C(=O)N[C@H](C(=O)NCCc1nc(-c2nc(C(=O)NCCC[S+](C)C)cs2)cs1)[C@@H](C)O)[C@@H](OC1OC(CO)C(O)C(O)C1OC1OC(CO)C(O)C(OC(N)=O)C1O)c1cnc[nH]1 (some centres not stated) [Bleomycin] (max 10 µM) |  |  |  |  |  |  |  |  |  |  |  |  | -0.402 GR | 0.354 GR | -0.115 GR | 0.187 GR | -0.107 GR | -0.12 GR | 0.481 GR | -0.21 GR
8 | Nc1cc(C(F)(F)F)c(-c2cc(N3CCOCC3)nc(N3CCOCC3)n2)cn1 [Buparlisib/NVP-BKM120] (max 10 µM) | -0.506 GR | -0.496 GR | -0.727 GR | -0.373 GR | -0.32 GR | -0.976 GR | -0.48 GR | -0.851 GR | -0.269 GR | -0.408 GR | 0.0382 GR | -0.279 GR |  |  |  |  |  |  |  | 
